Values quoted from earlier work, collected in US20180008598A1, “ANTIBACTERIAL NASAL COMPOSITIONS AND RELATED METHODS” (Xlear, Inc., priority 2016, published 2018).

Legend:
dental caries = conditions: regular consumption
Streptococcus pneumonia = conditions: in vitro, during its logarithmic growth phase

In the case of `OC[C@@H](O)[C@H](O)[C@@H](O)CO` [Xylitol, xylitol], the “incidence of dental caries” value (dental caries) is listed as “reduce the incidence of dental caries” and the “growth of Streptococcus pneumonia” value (Streptococcus pneumonia) is listed as “inhibit the growth”.
